# Data as given in US20220383986A1, “Complex System for Contextual Spectrum Mask Generation Based on Quantitative Imaging” (The Board of Trustees of the University of Illinois, priority 2021, published 2022).
# How the values were obtained:
# CHO cells [1] = conditions: 1 μM staurosporine added to culture medium; general description of the reagent; cited from earlier work
# CHO cells [2] = experiment: time-lapse SLIM recording of CHO cells with and without staurosporine; assay type: cell-based, Chinese hamster; conditions: 1 μM staurosporine in medium, measured for 10 hours, 37° C. and 5% CO2
# Description: CHO cells were plated on a glass bottom 6-well plate for optimal confluency. In addition to NucBlue/NucGreen staining, 1 μM of staurosporine (apoptotic inducing reagent) solution was added to the culture medium. This potent reagent permeates cell membrane and disrupts protein kinase, cAMP, and lead to apoptosis in 4-6 hours. The cells were then measured by SLIM and epi-fluorescence microscopy. The cells were maintained in regular incubation condition (37° C. and 5% concentration of CO2) throughout the experiment. In addition, it is verified that the cells were not affected by necrosis and lytic cell death.
# PICS on CHO cells and Evaluate the effect of lytic cell death: Before performing experiments on CHO cells, a preliminary study was conducted, as follows. Live cell cultures were prepared and split into the two groups. 1 μM of staurosporine was added into the medium of the experimental group, whereas the others were kept intact as control. Both control and experimental cells were measured with SLIM for 10 hours under regular incubation condition (37° C. and 5% concentration of CO2).
structure (smiles),measurement,setting,value
CN[C@@H]1C[C@H]2O[C@@](C)([C@@H]1OC)n1c3ccccc3c3c4c(c5c6ccccc6n2c5c31)C(=O)NC4 [staurosporine],time to apoptosis,CHO cells [1],4 to 6 h
same,cell characteristics in SLIM (QPI) images versus untreated control,CHO cells [2],"cell volume decreased, and membrane ruptured or became detached"
